Test results published in ChEMBL document CHEMBL1240419, “Synthesis and antibacterial activity of 3-O-carbamoyl derivatives of 6,11-di-O-methylerythromycin A: a novel class of acylides” (2010).
Values after ≈ are worked out from the molar mass of the structure shown.

Legend:
Type in all cases: functional
[1] = system: Staphylococcus aureus; assay: Antibacterial activity against erythromycin-resistant, methicillin-susceptible Staphylococcus aureus A265 by broth microdilution method
[2] = system: Streptococcus pneumoniae; assay: Antibacterial activity against erythromycin-resistant Streptococcus pneumoniae 3469 by broth microdilution method
[3] = system: Staphylococcus aureus; assay: Antibacterial activity against erythromycin-susceptible Staphylococcus aureus ATCC 25923 by broth microdilution method
[4] = system: Haemophilus influenzae; assay: Antibacterial activity against ampicillin-susceptible Haemophilus influenzae ATCC 49247 by broth microdilution method
[5] = system: Haemophilus influenzae; assay: Antibacterial activity against ampicillin-resistant Haemophilus influenzae 3300 by broth microdilution method
[6] = system: Staphylococcus aureus; assay: Antibacterial activity against erythromycin, methicillin-resistant Staphylococcus aureus A333 by broth microdilution method
[7] = system: Streptococcus pneumoniae; assay: Antibacterial activity against erythromycin-susceptible Streptococcus pneumoniae ATCC 49619 by broth microdilution method

CC[C@H]1OC(=O)[C@H](C)[C@@H](OC(=O)NCCc2ccccc2F)[C@H](C)[C@@H](O[C@@H]2O[C@H](C)C[C@H](N(C)C)[C@H]2O)[C@](C)(OC)C[C@@H](C)C(=O)[C@@H](C)[C@@H](OC)[C@]1(C)O was tested, and the MIC [1] was 16 µg/mL (≈ 20.8 µM), the MIC [2] was 0.125 µg/mL (≈ 0.163 µM) and the MIC [3] was 8 µg/mL (≈ 10.4 µM). The MIC [4] was 16 µg/mL (≈ 20.8 µM), the MIC [5] was 16 µg/mL (≈ 20.8 µM) and the MIC [6] was 64 µg/mL (≈ 83.2 µM). It also gave an MIC [7] of 0.125 µg/mL (≈ 0.163 µM).
For CC[C@H]1OC(=O)[C@H](C)[C@@H](OC(=O)NCCCOC(C)C)[C@H](C)[C@@H](O[C@@H]2O[C@H](C)C[C@H](N(C)C)[C@H]2O)[C@](C)(OC)C[C@@H](C)C(=O)[C@@H](C)[C@@H](OC)[C@]1(C)O, the MIC [1] was 4 µg/mL (≈ 5.35 µM), the MIC [2] was 8 µg/mL (≈ 10.7 µM) and the MIC [3] was 4 µg/mL (≈ 5.35 µM). The MIC [4] was 16 µg/mL (≈ 21.4 µM), the MIC [5] was 32 µg/mL (≈ 42.8 µM) and the MIC [6] was over 64 µg/mL. The MIC [7] was 0.5 µg/mL (≈ 0.669 µM).
Compound CC[C@H]1OC(=O)[C@H](C)[C@@H](OC(=O)NCc2ccc(Br)cc2)[C@H](C)[C@@H](O[C@@H]2O[C@H](C)C[C@H](N(C)C)[C@H]2O)[C@](C)(OC)C[C@@H](C)C(=O)[C@@H](C)[C@@H](OC)[C@]1(C)O has an MIC [1] of 0.125 µg/mL (≈ 0.153 µM), an MIC [2] of 0.125 µg/mL (≈ 0.153 µM) and an MIC [3] of 0.125 µg/mL (≈ 0.153 µM). It also gave an MIC [4] of 2 µg/mL (≈ 2.45 µM), an MIC [5] of 2 µg/mL (≈ 2.45 µM) and an MIC [6] of 32 µg/mL (≈ 39.2 µM). For the same compound, the MIC [7] was 0.125 µg/mL (≈ 0.153 µM).
For CC[C@H]1OC(=O)[C@H](C)[C@@H](OC(=O)NCCc2ccc(F)cc2)[C@H](C)[C@@H](O[C@@H]2O[C@H](C)C[C@H](N(C)C)[C@H]2O)[C@](C)(OC)C[C@@H](C)C(=O)[C@@H](C)[C@@H](OC)[C@]1(C)O, the MIC [1] was 2 µg/mL (≈ 2.6 µM), the MIC [2] was 0.125 µg/mL (≈ 0.163 µM) and the MIC [3] was 2 µg/mL (≈ 2.6 µM). For the same compound, the MIC [4] was 8 µg/mL (≈ 10.4 µM), the MIC [5] was 8 µg/mL (≈ 10.4 µM) and the MIC [6] was 32 µg/mL (≈ 41.6 µM). For the same compound, the MIC [7] was 0.125 µg/mL (≈ 0.163 µM).
Compound CC[C@H]1OC(=O)[C@H](C)[C@@H](OC(=O)NCc2ccccc2)[C@H](C)[C@@H](O[C@@H]2O[C@H](C)C[C@H](N(C)C)[C@H]2O)[C@](C)(OC)C[C@@H](C)C(=O)[C@@H](C)[C@@H](OC)[C@]1(C)O has an MIC [1] of 0.125 µg/mL (≈ 0.17 µM), an MIC [2] of 0.125 µg/mL (≈ 0.17 µM) and an MIC [3] of 2 µg/mL (≈ 2.71 µM). It also gave an MIC [4] of 8 µg/mL (≈ 10.9 µM), an MIC [5] of 4 µg/mL (≈ 5.43 µM) and an MIC [6] of over 64 µg/mL. It also gave an MIC [7] of 0.125 µg/mL (≈ 0.17 µM).
